Results taken from ChEMBL document CHEMBL1133926, “Optimization of a screening lead for factor VIIa/TF” (Bioorg Med Chem Lett, 2001).
pKi: −log10 of the molar value. Calls of active or inactive are those of the source. No cut-off for these calls is given here.

Experiments:
[1] = target: T1, Urokinase-type plasminogen activator (Homo sapiens, UniProt P00749); assay: Relative binding affinity for urokinase-type plasminogen activator
[2] = target: T2, Coagulation factor X (Homo sapiens, UniProt P00742); assay: Binding affinity towards coagulation factor X with respect to compound 1
[3] = species on record: Homo sapiens; assay: (§1) In vitro anticoagulant activity in human plasma to double the prothrombin time (2x PT); type: functional
[4] = target: T3, Prothrombin (Homo sapiens, UniProt P00734); assay: Binding affinity towards Thrombin with respect to compound 1
[5] = target: T4, Plasminogen (Homo sapiens, UniProt P00747); assay: Relative affinity for Plasmin compared to compound 1
[6] = target: T5, Serine protease 1 (Homo sapiens, UniProt P07477); assay: Relative binding affinity towards Trypsin
[7] = target: Coagulation factor VII/tissue factor (Homo sapiens, UniProt P08709); assay: Binding affinity for factor VIIa/TF; type: protein-complex assay
[8] = as §1; type: functional
[9] = target: T3, Prothrombin; assay: Binding affinity for Coagulation factor II relative to compound 1
[10] = target: T2, Coagulation factor X; assay: Binding affinity for Coagulation factor X with respect to compound 1
[11] = target: T4, Plasminogen; assay: Binding affinity towards Plasmin
[12] = target: T3, Prothrombin; assay: Binding affinity towards Coagulation factor II
[13] = target: T5, Serine protease 1; assay: Binding affinity towards Trypsin
[14] = target: T2, Coagulation factor X; assay: Binding affinity towards Coagulation factor X
[15] = target: T1, Urokinase-type plasminogen activator; assay: Binding affinity towards urokinase-type plasminogen activator (microPa)
[16] = target: T6, Coagulation factor VII (Homo sapiens, UniProt P08709); assay: Binding affinity towards factor VIIa/TF was determined
T6 sequence (P08709 whole entry): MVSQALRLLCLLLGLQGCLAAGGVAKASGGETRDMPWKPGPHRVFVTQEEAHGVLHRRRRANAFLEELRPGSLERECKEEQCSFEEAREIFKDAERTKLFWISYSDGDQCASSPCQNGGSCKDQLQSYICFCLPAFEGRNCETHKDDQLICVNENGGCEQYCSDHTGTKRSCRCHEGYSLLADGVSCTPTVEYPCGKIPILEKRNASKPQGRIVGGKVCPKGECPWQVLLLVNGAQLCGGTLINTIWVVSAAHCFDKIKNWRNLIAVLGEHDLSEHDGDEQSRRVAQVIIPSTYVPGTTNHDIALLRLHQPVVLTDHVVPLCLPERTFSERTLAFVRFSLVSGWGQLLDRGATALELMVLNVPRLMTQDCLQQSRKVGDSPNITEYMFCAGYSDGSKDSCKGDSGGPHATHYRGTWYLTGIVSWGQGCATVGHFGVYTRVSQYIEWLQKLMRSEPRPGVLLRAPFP

[17] = species on record: Homo sapiens; assay: In vitro anticoagulant activity in human plasma to double the prothrombin time (2xP T); Not active; type: functional, cell-free

T5 sequence (P07477 whole entry): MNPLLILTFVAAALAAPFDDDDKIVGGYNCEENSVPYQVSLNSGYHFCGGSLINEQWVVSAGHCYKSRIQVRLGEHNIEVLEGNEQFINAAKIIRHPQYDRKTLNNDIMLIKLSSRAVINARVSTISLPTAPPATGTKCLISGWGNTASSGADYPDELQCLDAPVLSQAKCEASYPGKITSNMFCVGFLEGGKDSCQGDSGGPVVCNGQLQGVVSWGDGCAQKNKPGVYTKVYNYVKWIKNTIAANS
T4 sequence (P00747 97-580 limits assumed): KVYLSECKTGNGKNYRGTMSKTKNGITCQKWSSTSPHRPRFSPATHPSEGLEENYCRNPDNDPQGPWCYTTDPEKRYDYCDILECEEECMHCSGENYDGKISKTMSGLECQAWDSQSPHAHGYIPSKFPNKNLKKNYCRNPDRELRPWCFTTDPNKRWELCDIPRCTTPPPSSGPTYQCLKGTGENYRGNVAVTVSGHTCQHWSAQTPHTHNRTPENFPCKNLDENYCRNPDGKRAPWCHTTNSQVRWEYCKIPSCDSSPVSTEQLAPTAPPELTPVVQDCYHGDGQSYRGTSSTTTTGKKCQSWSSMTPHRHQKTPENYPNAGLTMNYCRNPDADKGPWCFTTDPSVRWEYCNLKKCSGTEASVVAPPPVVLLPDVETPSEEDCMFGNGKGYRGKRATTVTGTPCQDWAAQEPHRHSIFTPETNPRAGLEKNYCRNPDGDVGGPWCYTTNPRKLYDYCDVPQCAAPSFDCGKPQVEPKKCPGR
T4 sequence (P00747 581-810 limits assumed): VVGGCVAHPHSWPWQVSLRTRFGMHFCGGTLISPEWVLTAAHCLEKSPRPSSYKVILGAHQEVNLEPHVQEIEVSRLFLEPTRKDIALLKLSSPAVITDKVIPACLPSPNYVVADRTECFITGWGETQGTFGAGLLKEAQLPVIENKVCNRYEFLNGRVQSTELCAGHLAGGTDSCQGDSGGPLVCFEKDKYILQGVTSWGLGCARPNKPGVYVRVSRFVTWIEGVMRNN
Coagulation factor VII/tissue factor, sequence (P13726 33-295 partner limits assumed, one chain of several): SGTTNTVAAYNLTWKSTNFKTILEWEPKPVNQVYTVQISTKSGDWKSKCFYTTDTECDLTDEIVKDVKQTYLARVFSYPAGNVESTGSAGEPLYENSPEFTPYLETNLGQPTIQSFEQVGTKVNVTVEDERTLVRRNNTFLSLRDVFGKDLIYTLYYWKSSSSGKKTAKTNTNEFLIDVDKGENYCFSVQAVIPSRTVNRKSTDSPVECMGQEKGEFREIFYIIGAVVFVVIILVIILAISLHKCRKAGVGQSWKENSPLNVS
T2 sequence (P00742 41-179 limits assumed): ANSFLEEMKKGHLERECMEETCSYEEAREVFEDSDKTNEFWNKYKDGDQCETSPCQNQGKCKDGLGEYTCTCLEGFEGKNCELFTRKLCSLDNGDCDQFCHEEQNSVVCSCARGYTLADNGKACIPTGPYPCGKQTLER
T2 sequence (P00742 235-488 limits assumed): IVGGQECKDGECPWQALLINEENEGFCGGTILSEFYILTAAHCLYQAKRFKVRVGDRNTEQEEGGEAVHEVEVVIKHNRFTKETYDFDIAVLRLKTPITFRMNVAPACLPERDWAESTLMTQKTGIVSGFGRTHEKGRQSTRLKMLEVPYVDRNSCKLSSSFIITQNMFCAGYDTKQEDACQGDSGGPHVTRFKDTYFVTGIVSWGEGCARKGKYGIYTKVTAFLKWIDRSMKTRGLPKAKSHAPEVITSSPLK

| SMILES | Selectivity [1] | Selectivity [5] | Selectivity [6] | pKi [7] | Selectivity [9] | Selectivity [10] | other results |
| --- | --- | --- | --- | --- | --- | --- | --- |
| N=C(N)c1ccc2[nH]c(-c3cc(-c4nn[nH]n4)cc(-c4cccc([N+](=O)[O-])c4)c3O)cc2c1 | 15 | 20 | 40 |  |  |  | Selectivity [2]: 0.5; 2x PT [3]: 16 µM; Selectivity [4]: 140 |
| N=C(N)c1ccc2[nH]c(-c3cc(C(=O)O)cc(-c4cccc([N+](=O)[O-])c4)c3O)cc2c1 | 44 | 75 | 70 | 8.30 | 420 | 42 | 2x PT [8]: 4.1 µM |
| N=C(N)c1ccc2nc(-c3cc(Cl)cc(-c4cccc(N)c4)c3O)[nH]c2c1 |  |  |  | 7.11 |  |  | pKi [11]: 5.49; pKi [12]: 8.38; pKi [13]: 5.33; pKi [14]: 9.30; pKi [15]: 9.34 |
| N=C(N)c1ccc2[nH]c(-c3cc(CC(=O)O)cc(-c4cccc(C(=O)O)c4)c3O)cc2c1 | 6 | 5 | 1 | 6.49 | 375 | 0.5 |  |
| N=C(N)c1ccc2[nH]c(-c3cc(CC(=O)O)cc(-c4ccccc4)c3O)cc2c1 | 1 | 6 | 1 | 7.39 | 49 | 4 |  |
| N=C(N)c1ccc2[nH]c(-c3cc(CC(=O)O)cc(-c4cccc(Cl)c4)c3O)cc2c1 | 4 | 17 | 3 | 7.48 | 112 | 5 |  |
| N=C(N)c1ccc2[nH]c(-c3cc(CCC(=O)O)cc(-c4cccc([N+](=O)[O-])c4)c3O)cc2c1 | 6 | 6 | 37 | 7.57 | 59 | 2 | 2x PT [8]: 2.2 µM |
| N=C(N)c1ccc2[nH]c(-c3cc(CC(=O)O)cc(-c4cccc(OP(=O)(O)O)c4)c3O)cc2c1 | 4 | 4 | inactive | 6.02 | 87 | 1 |  |
| N=C(N)c1cccc(-c2cc(CC(=O)O)cc(-c3cc4cc(C(=N)N)ccc4[nH]3)c2O)c1 | 0.6 | 3 | 2 | 6.37 | 140 | 4 |  |
| N=C(N)c1ccc2[nH]c(-c3cc(-c4nnn[nH]4)cc(-c4cccc([N+](=O)[O-])c4)c3O)cc2c1 |  |  |  |  |  |  | pKi [16]: 7.30 |
| N=C(N)c1ccc2[nH]c(-c3cc(CC(=O)O)cc(-c4cccc([N+](=O)[O-])c4)c3O)cc2c1 | 64 | 90 | 160 | 8.52 | 960 | 20 | 2x PT [8]: 1.7 µM |
| N=C(N)c1ccc2[nH]c(-c3cc(CCOP(=O)(O)O)cc(-c4cccc([N+](=O)[O-])c4)c3O)cc2c1 | 21 | 33 | 63 | 8.52 | 870 | 5 | 2x PT [17]: inactive |
| N=C(N)c1ccc2[nH]c(-c3cc(CC(N)C(=O)O)cc(-c4cccc([N+](=O)[O-])c4)c3O)cc2c1 (stereo not given) | 1 | 3 | 5 |  |  |  | Selectivity [2]: 0.5; pKi [16]: 7.30; 2x PT [3]: 0.73 µM; Selectivity [4]: 40 |
| N=C(N)c1ccc2[nH]c(-c3cc(CC(=O)O)cc(-c4cccc(-c5nn[nH]n5)c4)c3O)cc2c1 | 2 | 2 | 3 |  | 100 | 0.5 |  |
| N=C(N)c1ccc2[nH]c(-c3cc(CC(=O)O)cc(-c4cccc(N)c4)c3O)cc2c1 | 6 | 27 | 83 | 7.92 | 550 | 26 |  |
| N=C(N)c1ccc2[nH]c(-c3cc(CC(=O)O)cc(-c4cccc(-c5nnn[nH]5)c4)c3O)cc2c1 |  |  |  | 6.32 |  |  |  |
